The compounds below were run against JAK1 (Homo sapiens (Human), UniProt P23458) (assay: Biochemical JAK1 kinase assay (LanthaScreen)). Conditions: not given.
Protocol: (§1) Assay 1: Biochemical JAK and Tyk2 Kinase Assays
(§2) A panel of four LanthaScreen JAK biochemical assays (JAK1, 2, 3 and Tyk2) were carried in a common kinase reaction buffer (50 mM HEPES, pH 7.5, 0.01% Brij-35, 10 mM MgCl2, and 1 mM EGTA). Recombinant GST-tagged JAK enzymes and a GFP-tagged STAT1 peptide substrate were obtained from Life Technologies.
(§3) Serially or discretely diluted compounds were pre-incubated with each of the four JAK enzymes and the substrate in white 384-well microplates (Corning) at ambient temperature for 1 h. ATP was subsequently added to initiate the kinase reactions in 10 μL total volume, with 1% DMSO. […] Kinase reactions were allowed to proceed for 1 hour at ambient temperature before a 10 μL preparation of EDTA (10 mM final concentration) and Tb-anti-pSTAT1 (pTyr701) antibody (Life Technologies, 2 nM final concentration) in TR-FRET dilution buffer (Life Technologies) was added. The plates were allowed to incubate at ambient temperature for 1 h before being read on the EnVision reader (Perkin Elmer). Emission ratio signals (520 nm/495 nm) were recorded and utilized to calculate the percent inhibition values based on DMSO and background controls.
(§4) For dose-response analysis, percent inhibition data were plotted vs. compound concentrations, and IC50 values were determined from a 4-parameter robust fit model with the Prism software (GraphPad Software). Results were expressed as pIC50 (negative logarithm of IC50) and subsequently converted to pKi (negative logarithm of dissociation constant, Ki) using the Cheng-Prusoff equation.

JAK1, sequence (P23458 whole entry): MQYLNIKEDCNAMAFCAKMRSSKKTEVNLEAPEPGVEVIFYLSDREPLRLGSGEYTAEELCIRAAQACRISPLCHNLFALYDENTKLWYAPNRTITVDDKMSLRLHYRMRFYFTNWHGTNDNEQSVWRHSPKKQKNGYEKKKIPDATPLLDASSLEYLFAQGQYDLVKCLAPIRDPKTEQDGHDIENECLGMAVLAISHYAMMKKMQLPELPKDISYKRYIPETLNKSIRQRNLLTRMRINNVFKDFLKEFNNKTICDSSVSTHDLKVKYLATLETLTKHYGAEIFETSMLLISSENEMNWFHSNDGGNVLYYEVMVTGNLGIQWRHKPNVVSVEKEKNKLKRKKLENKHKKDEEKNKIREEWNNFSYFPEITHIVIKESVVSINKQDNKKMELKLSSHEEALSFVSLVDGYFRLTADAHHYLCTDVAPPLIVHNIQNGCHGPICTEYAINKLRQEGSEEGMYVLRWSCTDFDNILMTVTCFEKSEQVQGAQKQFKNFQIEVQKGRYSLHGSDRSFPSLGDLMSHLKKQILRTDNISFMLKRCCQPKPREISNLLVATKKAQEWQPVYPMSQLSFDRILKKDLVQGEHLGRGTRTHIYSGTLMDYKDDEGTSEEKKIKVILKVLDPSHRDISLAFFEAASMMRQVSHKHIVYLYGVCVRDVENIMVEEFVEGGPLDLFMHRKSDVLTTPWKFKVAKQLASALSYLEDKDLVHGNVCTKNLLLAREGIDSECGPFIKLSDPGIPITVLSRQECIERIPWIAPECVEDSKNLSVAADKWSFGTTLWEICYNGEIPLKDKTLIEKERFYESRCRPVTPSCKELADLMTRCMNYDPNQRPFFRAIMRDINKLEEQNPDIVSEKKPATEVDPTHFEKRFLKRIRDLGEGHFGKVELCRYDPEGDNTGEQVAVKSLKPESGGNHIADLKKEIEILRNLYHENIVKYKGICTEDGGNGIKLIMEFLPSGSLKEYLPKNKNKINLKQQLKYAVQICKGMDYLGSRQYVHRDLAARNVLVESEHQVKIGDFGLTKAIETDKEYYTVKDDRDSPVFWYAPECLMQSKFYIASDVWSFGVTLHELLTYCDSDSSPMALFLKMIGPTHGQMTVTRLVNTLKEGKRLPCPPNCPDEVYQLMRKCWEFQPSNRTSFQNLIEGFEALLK

Q: Which “JAK 1 (pKi)” value does the source give for `C=CC(=O)N1CC(CCn2c(=O)ccc3cnc(Nc4cnn(CCOC)c4)nc32)C1` [Example 21] here?
A: Its value is “E (E represents a pKi value of 7 or below (Ki of 100 nM or above))”.

Q: With `C=CC(=O)N1CC(CCn2c(=O)ccc3cnc(Nc4cnn(CCN(C)C)c4)nc32)C1` [Example 22] as the compound, how does the “JAK 1 (pKi)” value read?
A: Its value is “E (E represents a pKi value of 7 or below (Ki of 100 nM or above))”.

Q: Which “JAK 1 (pKi)” value does the source give for `C=CC(=O)N1CC(CCn2c(=O)ccc3cnc(Nc4ccc(N5CCOCC5)cn4)nc32)C1` [Example 29] here?
A: Its value is “E (E represents a pKi value of 7 or below (Ki of 100 nM or above))”.

Q: Which “JAK 1 (pKi)” value does the source give for `C=CC(=O)N1CCN(CCn2c(=O)ccc3cnc(Nc4ccccc4)nc32)CC1` [Example 40] here?
A: Its value is “E (E represents a pKi value of 7 or below (Ki of 100 nM or above))”.

Q: With `C=CC(=O)N1CCN(CCn2c(=O)ccc3cnc(Nc4ccc(N5CCOCC5)c(F)c4)nc32)CC1` [Example 41] as the compound, how does the “JAK 1 (pKi)” value read?
A: The value was “E (E represents a pKi value of 7 or below (Ki of 100 nM or above))”.

Q: Which “JAK 1 (pKi)” value does the source give for `C=CC(=O)N1CCN(CCn2c(=O)ccc3cnc(Nc4cnn(CCOC(C)C)c4)nc32)CC1` [Example 42] here?
A: The value was “E (E represents a pKi value of 7 or below (Ki of 100 nM or above))”.

Q: For `C=CC(=O)N1CCN(CCn2c(=O)ccc3cnc(Nc4cnn(C5CCN(C)CC5)c4)nc32)CC1` [Example 43], which “JAK 1 (pKi)” value is on record?
A: The value was “E (E represents a pKi value of 7 or below (Ki of 100 nM or above))”.

Q: `C=CC(=O)N1CCN(CCn2c(=O)ccc3cnc(Nc4ccc(N5CCN(C6CC6)CC5)cc4)nc32)CC1` [Example 50] was tested. Which “JAK 1 (pKi)” value did it give?
A: Its value is “E (E represents a pKi value of 7 or below (Ki of 100 nM or above))”.

Each compound was assayed against JAK3 (Homo sapiens (Human), UniProt P52333) (assay: Biochemical JAK3 kinase assay (LanthaScreen)). Conditions: not given.
JAK3, sequence (P52333 whole entry): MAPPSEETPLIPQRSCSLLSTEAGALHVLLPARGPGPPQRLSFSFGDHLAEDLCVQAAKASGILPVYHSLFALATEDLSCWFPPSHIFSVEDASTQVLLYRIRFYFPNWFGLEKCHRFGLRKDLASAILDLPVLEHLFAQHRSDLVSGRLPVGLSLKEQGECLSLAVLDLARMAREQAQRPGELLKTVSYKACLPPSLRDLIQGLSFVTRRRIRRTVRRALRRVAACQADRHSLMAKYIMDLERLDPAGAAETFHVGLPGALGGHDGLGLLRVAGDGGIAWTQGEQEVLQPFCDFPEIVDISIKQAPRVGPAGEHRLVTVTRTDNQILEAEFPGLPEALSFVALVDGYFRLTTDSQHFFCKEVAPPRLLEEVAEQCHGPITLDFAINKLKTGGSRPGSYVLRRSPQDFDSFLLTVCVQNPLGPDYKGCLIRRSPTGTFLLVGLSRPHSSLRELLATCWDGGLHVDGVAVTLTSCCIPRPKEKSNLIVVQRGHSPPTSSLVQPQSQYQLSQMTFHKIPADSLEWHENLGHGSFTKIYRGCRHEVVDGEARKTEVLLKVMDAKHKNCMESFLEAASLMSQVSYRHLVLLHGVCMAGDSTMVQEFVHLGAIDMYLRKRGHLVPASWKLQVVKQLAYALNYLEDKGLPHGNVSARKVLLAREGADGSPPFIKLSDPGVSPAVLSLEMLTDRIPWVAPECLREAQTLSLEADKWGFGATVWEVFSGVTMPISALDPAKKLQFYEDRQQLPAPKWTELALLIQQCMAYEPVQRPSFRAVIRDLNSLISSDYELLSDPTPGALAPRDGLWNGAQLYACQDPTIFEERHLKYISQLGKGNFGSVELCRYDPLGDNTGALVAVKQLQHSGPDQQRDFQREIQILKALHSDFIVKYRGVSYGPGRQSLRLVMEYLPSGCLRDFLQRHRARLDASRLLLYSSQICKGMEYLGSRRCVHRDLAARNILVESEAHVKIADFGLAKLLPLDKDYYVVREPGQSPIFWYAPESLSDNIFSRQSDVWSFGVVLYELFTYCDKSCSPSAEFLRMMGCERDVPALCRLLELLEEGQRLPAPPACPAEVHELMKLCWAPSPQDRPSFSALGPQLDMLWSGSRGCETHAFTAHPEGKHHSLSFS
Protocol: as §1, §2, §3, §4

Q: Which “JAK 3 (pKi)” value does the source give for `C=CC(=O)N1CC(CCn2c(=O)ccc3cnc(Nc4cnn(CCOC)c4)nc32)C1` [Example 21] here?
A: Its value is “B (B represents pKi value between 9 and 10 (Ki between 1 nM and 0.1 nM))”.

Q: For `C=CC(=O)N1CC(CCn2c(=O)ccc3cnc(Nc4cnn(CCN(C)C)c4)nc32)C1` [Example 22], which “JAK 3 (pKi)” value is on record?
A: The value was “B (B represents pKi value between 9 and 10 (Ki between 1 nM and 0.1 nM))”.

Q: How did the “JAK 3 (pKi)” value turn out when `C=CC(=O)N1CC(CCn2c(=O)ccc3cnc(Nc4ccc(N5CCOCC5)cn4)nc32)C1` [Example 29] was run?
A: The value was “B (B represents pKi value between 9 and 10 (Ki between 1 nM and 0.1 nM))”.

Q: For `C=CC(=O)N1CCN(CCn2c(=O)ccc3cnc(Nc4ccccc4)nc32)CC1` [Example 40], which “JAK 3 (pKi)” value is on record?
A: The value was “B (B represents pKi value between 9 and 10 (Ki between 1 nM and 0.1 nM))”.

Q: How did the “JAK 3 (pKi)” value turn out when `C=CC(=O)N1CCN(CCn2c(=O)ccc3cnc(Nc4ccc(N5CCOCC5)c(F)c4)nc32)CC1` [Example 41] was run?
A: Its value is “B (B represents pKi value between 9 and 10 (Ki between 1 nM and 0.1 nM))”.

Q: With `C=CC(=O)N1CCN(CCn2c(=O)ccc3cnc(Nc4cnn(CCOC(C)C)c4)nc32)CC1` [Example 42] as the compound, how does the “JAK 3 (pKi)” value read?
A: The value was “B (B represents pKi value between 9 and 10 (Ki between 1 nM and 0.1 nM))”.

Q: For `C=CC(=O)N1CCN(CCn2c(=O)ccc3cnc(Nc4cnn(C5CCN(C)CC5)c4)nc32)CC1` [Example 43], which “JAK 3 (pKi)” value is on record?
A: Its value is “B (B represents pKi value between 9 and 10 (Ki between 1 nM and 0.1 nM))”.

Q: Which “JAK 3 (pKi)” value does the source give for `C=CC(=O)N1CCN(CCn2c(=O)ccc3cnc(Nc4ccc(N5CCN(C6CC6)CC5)cc4)nc32)CC1` [Example 50] here?
A: Its value is “B (B represents pKi value between 9 and 10 (Ki between 1 nM and 0.1 nM))”.

Same assay, conditions: selectivity JAK3 over JAK1, difference of pKi

Q: With `C=CC(=O)N1CC(CCn2c(=O)ccc3cnc(Nc4cnn(CCOC)c4)nc32)C1` [Example 21] as the compound, how does the “JAK3 (pKi)-JAK1 (pKi)” value read?
A: Its value is “A (A represents a value of 3 or above)”.

Q: For `C=CC(=O)N1CC(CCn2c(=O)ccc3cnc(Nc4cnn(CCN(C)C)c4)nc32)C1` [Example 22], which “JAK3 (pKi)-JAK1 (pKi)” value is on record?
A: The value was “A (A represents a value of 3 or above)”.

Q: How did the “JAK3 (pKi)-JAK1 (pKi)” value turn out when `C=CC(=O)N1CC(CCn2c(=O)ccc3cnc(Nc4ccc(N5CCOCC5)cn4)nc32)C1` [Example 29] was run?
A: The value was “A (A represents a value of 3 or above)”.

Q: For `C=CC(=O)N1CCN(CCn2c(=O)ccc3cnc(Nc4ccccc4)nc32)CC1` [Example 40], which “JAK3 (pKi)-JAK1 (pKi)” value is on record?
A: The value was “A (A represents a value of 3 or above)”.

Q: For `C=CC(=O)N1CCN(CCn2c(=O)ccc3cnc(Nc4ccc(N5CCOCC5)c(F)c4)nc32)CC1` [Example 41], which “JAK3 (pKi)-JAK1 (pKi)” value is on record?
A: The value was “A (A represents a value of 3 or above)”.

Q: For `C=CC(=O)N1CCN(CCn2c(=O)ccc3cnc(Nc4cnn(CCOC(C)C)c4)nc32)CC1` [Example 42], which “JAK3 (pKi)-JAK1 (pKi)” value is on record?
A: Its value is “A (A represents a value of 3 or above)”.

Q: With `C=CC(=O)N1CCN(CCn2c(=O)ccc3cnc(Nc4cnn(C5CCN(C)CC5)c4)nc32)CC1` [Example 43] as the compound, how does the “JAK3 (pKi)-JAK1 (pKi)” value read?
A: Its value is “A (A represents a value of 3 or above)”.

Q: `C=CC(=O)N1CCN(CCn2c(=O)ccc3cnc(Nc4ccc(N5CCN(C6CC6)CC5)cc4)nc32)CC1` [Example 50] was tested. Which “JAK3 (pKi)-JAK1 (pKi)” value did it give?
A: The value was “A (A represents a value of 3 or above)”.

The compounds below were run on IL-2 stimulated STAT5 phosphorylation in Tall-1 human T cell line (JAK3) (assay: Cellular JAK3 potency assay: inhibition of IL-2 stimulated pSTAT5 in Tall-1 T cells). Conditions: IL-2 stimulated pSTAT5, Tall-1 T cells.
Format: cell-based
Protocol: Assay 2: Cellular JAK3 Potency Assay: Inhibition of IL-2 Stimulated pSTAT5 in Tall-1 T Cells
The potency of test compounds for inhibition of interleukin-2 (IL-2) stimulated STAT5 phosphorylation was measured in the Tall-1 human T cell line (DSMZ) using AlphaLisa. Because IL-2 signals through JAK3, this assay provides a measure of JAK3 cellular potency.
Phosphorylated STAT5 was measured via the AlphaLISA SureFire Ultra pSTAT5 (Tyr694/699) kit (PerkinElmer).
Human T cells from the Tall-1 cell line were cultured in a 37° C., 5% CO2 humidified incubator in RPMI (Life Technologies) supplemented with 15% Heat Inactivated Fetal Bovine Serum (FBS, Life Technologies), 2 mM Glutamax (Life Technologies), 25 mM HEPES (Life Technologies) and 1× Pen/Strep (Life Technologies). Compounds were serially diluted in DMSO and dispensed acoustically to empty wells. Assay media (phenol red-free DMEM (Life Technologies) supplemented with 10% FBS (ATCC)) was dispensed (4 μL/well) and plates shaken at 900 rpm for 10 inns. Cells were seeded at 45,000 cells/well in assay media (4 μL/well), and incubated at 37° C., 5% CO2 for 1 hour, followed by the addition of IL-2 (R&D Systems; final concentration 300 ng/ml) in pre-warmed assay media (4 μL) for 30 minutes. After cytokine stimulation, cells were lysed with 6 ul of 3× AlphaLisa Lysis Buffer (PerkinElmer) containing 1× PhosStop and Complete tablets (Roche). The lysate was shaken at 900 rpm for 10 minutes at room temperature (RT). Phosphorylated STAT5 was measured via the pSTAT5 AlphaLisa kit (PerkinElmer). Freshly prepared acceptor bead mixture was dispensed onto lysate (5 μL) under green filtered <100 lux light. Plates were shaken at 900 rpm for 2 mins, briefly spun down, and incubated for 2 hrs at RT in the dark. Donor beads were dispensed (5 μL) under green filtered <100 lux light. Plates were shaken at 900 rpm for 2 minutes, briefly spun down, and incubated overnight at RT in the dark. Luminescence was measured with excitation at 689 nm and emission at 570 nm using an EnVision plate reader (PerkinElmer) under green filtered <100 lux light.
To determine the inhibitory potency of test compounds in response to IL-2, the average emission intensity of beads bound to pSTAT5 was measured in a human T cell line. IC50 values were determined from analysis of the inhibition curves of signal intensity versus compound concentration. Data are expressed as pIC50 (negative decadic logarithm IC50) values (mean standard deviation).

Q: With `C=CC(=O)N1CC(CCn2c(=O)ccc3cnc(Nc4cnn(CCOC)c4)nc32)C1` [Example 21] as the compound, how does the “Tall-1 (pIC50)” value read?
A: Its value is “C (C represents a pIC50 value between 6 and 6.7 (IC50 between 1 μM and 200 nM))”.

Q: For `C=CC(=O)N1CC(CCn2c(=O)ccc3cnc(Nc4cnn(CCN(C)C)c4)nc32)C1` [Example 22], which “Tall-1 (pIC50)” value is on record?
A: The value was “C (C represents a pIC50 value between 6 and 6.7 (IC50 between 1 μM and 200 nM))”.

Q: With `C=CC(=O)N1CC(CCn2c(=O)ccc3cnc(Nc4ccc(N5CCOCC5)cn4)nc32)C1` [Example 29] as the compound, how does the “Tall-1 (pIC50)” value read?
A: The value was “C (C represents a pIC50 value between 6 and 6.7 (IC50 between 1 μM and 200 nM))”.

Q: Which “Tall-1 (pIC50)” value does the source give for `C=CC(=O)N1CCN(CCn2c(=O)ccc3cnc(Nc4ccccc4)nc32)CC1` [Example 40] here?
A: The value was “C (C represents a pIC50 value between 6 and 6.7 (IC50 between 1 μM and 200 nM))”.

Q: For `C=CC(=O)N1CCN(CCn2c(=O)ccc3cnc(Nc4ccc(N5CCOCC5)c(F)c4)nc32)CC1` [Example 41], which “Tall-1 (pIC50)” value is on record?
A: Its value is “C (C represents a pIC50 value between 6 and 6.7 (IC50 between 1 μM and 200 nM))”.

Q: `C=CC(=O)N1CCN(CCn2c(=O)ccc3cnc(Nc4cnn(CCOC(C)C)c4)nc32)CC1` [Example 42] was tested. Which “Tall-1 (pIC50)” value did it give?
A: The value was “C (C represents a pIC50 value between 6 and 6.7 (IC50 between 1 μM and 200 nM))”.

Q: With `C=CC(=O)N1CCN(CCn2c(=O)ccc3cnc(Nc4cnn(C5CCN(C)CC5)c4)nc32)CC1` [Example 43] as the compound, how does the “Tall-1 (pIC50)” value read?
A: The value was “C (C represents a pIC50 value between 6 and 6.7 (IC50 between 1 μM and 200 nM))”.

Q: `C=CC(=O)N1CCN(CCn2c(=O)ccc3cnc(Nc4ccc(N5CCN(C6CC6)CC5)cc4)nc32)CC1` [Example 50] was tested. Which “Tall-1 (pIC50)” value did it give?
A: Its value is “C (C represents a pIC50 value between 6 and 6.7 (IC50 between 1 μM and 200 nM))”.
